Measurements published in ChEMBL document CHEMBL1140602, “A simple, yet highly accurate, QSAR model captures the complement inhibitory activity of compstatin” (Bioorg Med Chem, 2007).
Positions of bridges follow the written chain, without caps; N, C: chain ends. Residues, ends and D or L forms follow the SMILES beside them.

Test: Inhibition of C3b activation relative to compstatin

logIC50: -0.301
Structure (SMILES): CC(C)C[C@@H]1NC(=O)[C@H](CCCNC(=N)N)NC(=O)CNC(=O)[C@H](Cc2c[nH]c3ccccc23)NC(=O)[C@H](CC(=O)O)NC(=O)[C@H](CCC(N)=O)NC(=O)[C@H](Cc2ccccc2)NC(=O)[C@H](C(C)C)NC(=O)[C@@H](NC(=O)[C@@H](N)CO)CSSC[C@@H](C(=O)N2CCC[C@H]2C(N)=O)NC(=O)[C@H](C)NC1=O (H-SCVFQDWGRLACP-NH2; disulfide 2-12)
